{"source": "patent US20100047371A1", "about": "“COMPOSITIONS AND METHODS FOR ORAL CANCER CHEMOPREVENTION USING BERRY PREPARATIONS AND EXTRACTS” (priority 2006, published 2010)", "key": {"[1]": {"experiment": "Human pharmacokinetic study: anthocyanins in saliva and peripheral blood after topical gel application", "type": "in vivo", "conditions": "for Anthocyanin concentration in saliva / Anthocyanin concentration in peripheral blood: 1.0 g 5% FBR Gel, pH 6.5 topical to floor of mouth; for Anthocyanin concentration in saliva: saliva collected 2-5 min after application; for Anthocyanin concentration in peripheral blood: blood drawn five minutes after application", "procedure": "Anthocyanin content in sera, saliva, and tissue explants was evaluated by an HPLC-MS assay. The respective samples (sera, saliva or tissue homogenates) were dissolved in 90% solvent A (water plus 1% formic acid) and 10% solvent B (acetonitrile plus 1% formic acid) and then separated on a Symmetry C18 reversed-phase column and analyzed using a Waters 2695 gradient HPLC separation module equipped with a 996 photodiode-array (PDA) UV/visible absorbance detector (Milford, Mass.). The solvent system consisted of a step gradient from 90% A to 50% B over 15 minutes, and the absorption spectra were recorded from 200-800 nm with the inline PDA detector. Mass spectrometry was conducted on a quadrupole ion tunnel mass spectrometer equipped with a Z-spray ESI source. Explant protein levels were determined by the Lowry method, using bovine γ-globulin as the standard protein [Lippman et al., 1993].\nNext, evaluation of anthocyanin uptake into human oral mucosa from FBR gels prepared as described in Example 1 was undertaken. For in-vivo studies, participation of human subjects was conducted in accordance with an IRB approved protocol. […] For the phamacokinetic analyses, nine consenting adult volunteers dried the anterior floor of their mouth, placed 1.0 g of 5% berry gel (pH 6.5), and massaged the gel in place for 30 seconds to facilitate uptake. Two minutes after gel application saliva was collected for the next three minutes. Peripheral blood was drawn five minutes after gel application. Following clotting, sera samples were collected, and both the sera and saliva samples were stored at −80° C. until LC-MS analysis as described below.\nAll nine participants had detectable anthocyanin levels of three anthocyanins (cyanidin 3-rutinoside, cyanidin 3-xylosylrutinoside, cyanidin 3-glucoside) in either their saliva or blood, and 4 donors had detectable levels of two anthocyanins (cyanidin 3-rutinoside and cyanidin 3-xylosylrutinoside) in their peripheral blood. Saliva from eight of the nine donors contained detectable levels of either two (cyanidin 3-rutinoside and cyanidin 3-xylosylrutinoside-4 donors) or three anthocyanins (4 donors)."}, "[2]": {"system": "Human Oral Mucosa Explant Tissues", "experiment": "Effect of final gel pH on anthocyanin uptake into human oral mucosa explant tissues", "type": "in vitro ADME", "conditions": "10% w/w FBR gel", "procedure": "Anthocyanin content in sera, saliva, and tissue explants was evaluated by an HPLC-MS assay. The respective samples (sera, saliva or tissue homogenates) were dissolved in 90% solvent A (water plus 1% formic acid) and 10% solvent B (acetonitrile plus 1% formic acid) and then separated on a Symmetry C18 reversed-phase column and analyzed using a Waters 2695 gradient HPLC separation module equipped with a 996 photodiode-array (PDA) UV/visible absorbance detector (Milford, Mass.). The solvent system consisted of a step gradient from 90% A to 50% B over 15 minutes, and the absorption spectra were recorded from 200-800 nm with the inline PDA detector. Mass spectrometry was conducted on a quadrupole ion tunnel mass spectrometer equipped with a Z-spray ESI source. Explant protein levels were determined by the Lowry method, using bovine γ-globulin as the standard protein [Lippman et al., 1993]. Tissue explants, specifically human oral mucosal explants, were used to determine the in vitro effects of FBR content and pH on anthocyanin uptake. Human oral tissues for the tissue explant studies were obtained from consenting volunteers who were undergoing elective oral surgery procedures. To confirm “no pathologic diagnosis”, a portion of each of these tissues was submitted for light microscopic evaluation. […] Tissues for explant experiments were immediately placed in an artificial saliva transport medium, which also served as the incubation medium for the gel absorption studies. The composition of the artificial saliva used for tissue transport and incubation was (final concentrations): sodium carboxymethylcellulose (0.5%), sorbitol (165 mM), NaCl (14 mM), KCl (16 mM), calcium chloride dehydrate (1.0 mM), MgCl2 (0.63 mM), Trizma hydrochloride (2.0 mM). Tissues from eight donors were used for preliminary studies to compare the penetration of anthocyanins from the 5% berry gel and the 10% FBR gel, both at a final pH of 6.5. In order to account for heterogeneity among human donors, tissue samples were hemisected. One tissue portion treated with 5% and the other with 10% FBR gels. One gram of gel (containing either 5% or 10% w/w FBR) was placed on the epithelial surface of the explant, followed by gently rubbing of the site for 30 seconds to facilitate uptake. Explants were then placed into artificial saliva, incubated for 30 minutes (37° C., 5% CO2), and then frozen at −80° C. until HPLC-mass spectroscopy analyses as previously reported [Rodrigo et al., in press]. Tissue preparation for HPLC analyses consisted of homogenization of the entire oral mucosal specimen, removal of an aliquot for sample protein level determination, followed by the addition of collagenase type II (0.1 mg/mL, GIBCO, Grand Island, N.Y.) and 1% formic acid. Samples were then placed on a Sep Pack (Millipore, Billerica, Mass.), eluted with methanol, and dried under argon gas. Additional oral mucosal explant studies were conducted to compare the effect of FBR gel pH on absorption into oral mucosal explants. Tissues from eleven donors were used for these studies, and handling was as described above with the exception that all gels contained 10% w/w FBR and were formulated at a final pH of 3.5 or 6.5. […] Large differences (up to 15-fold) in detectable anthocyanin levels were found in the gel treated donor tissues; findings that likely reflect the extensive heterogeneity within human tissues that affects tissue penetrative abilities."}, "[3]": {"conditions": "average of eleven explant samples"}}, "data": [{"smiles": "CC1OC(OCC2OC(Oc3cc4c(O)cc(O)cc4[o+]c3-c3ccc(O)c(O)c3)C(OC3OCC(O)C(O)C3O)C(O)C2O)C(O)C(O)C1O", "note": "(stereo not drawn) [cyanidin 3-xylosylrutinoside]", "values": [{"measurement": "number of donors with detectable levels in peripheral blood", "setting": "[1]; of nine participants, 5% berry gel (pH 6.5), five minutes after application", "value": 4, "unit": "donors"}, {"measurement": "Anthocyanin concentration in saliva", "setting": "[1]; patient 101", "value": 2.0, "unit": "pmol/mL"}, {"measurement": "Anthocyanin concentration in saliva", "setting": "[1]; patient 102", "value": 0.5, "unit": "pmol/mL"}, {"measurement": "Anthocyanin concentration in peripheral blood", "setting": "[1]; patient 103", "value": 0.6, "unit": "pmol/mL"}, {"measurement": "Anthocyanin concentration in saliva", "setting": "[1]; patient 104", "value": 1.5, "unit": "pmol/mL"}, {"measurement": "Anthocyanin concentration in peripheral blood", "setting": "[1]; patient 105", "value": 1.1, "unit": "pmol/mL"}, {"measurement": "Anthocyanin concentration in saliva", "setting": "[1]; patient 105", "value": 2.3, "unit": "pmol/mL"}, {"measurement": "Anthocyanin concentration in peripheral blood", "setting": "[1]; patient 106", "value": 0.8, "unit": "pmol/mL"}, {"measurement": "Anthocyanin concentration in saliva", "setting": "[1]; patient 106", "value": 1.9, "unit": "pmol/mL"}, {"measurement": "Anthocyanin concentration in peripheral blood", "setting": "[1]; patient 107", "value": 1.3, "unit": "pmol/mL"}, {"measurement": "Anthocyanin concentration in saliva", "setting": "[1]; patient 107", "value": 1.7, "unit": "pmol/mL"}, {"measurement": "Anthocyanin concentration in saliva", "setting": "[1]; patient 108", "value": 1.0, "unit": "pmol/mL"}, {"measurement": "Anthocyanin concentration in saliva", "setting": "[1]; patient 109", "value": 1.2, "unit": "pmol/mL"}, {"measurement": "Anthocyanin uptake, Gel pH 3.5, Avg. ± SEM", "setting": "[2]; [3]", "value": 5.4, "unit": "pmol per mg tissue"}, {"measurement": "Anthocyanin uptake, Gel pH 6.5, Avg. ± SEM", "setting": "[2]; [3]", "value": 17.4, "unit": "pmol per mg tissue"}, {"measurement": "% change 3.5 to 6.5, Avg. ± SEM", "setting": "[2]; average of explant samples", "value": 140.6, "unit": "%"}, {"measurement": "% change 3.5 to 6.5", "setting": "[2]; explant sample 001", "value": 522.5, "unit": "%"}, {"measurement": "Anthocyanin uptake, Gel pH 3.5", "setting": "[2]; explant sample 001", "value": 14.2, "unit": "pmol per mg tissue"}, {"measurement": "Anthocyanin uptake, Gel pH 6.5", "setting": "[2]; explant sample 001", "value": 88.1, "unit": "pmol per mg tissue"}, {"measurement": "% change 3.5 to 6.5", "setting": "[2]; explant sample 002", "value": 747.1, "unit": "%"}, {"measurement": "Anthocyanin uptake, Gel pH 3.5", "setting": "[2]; explant sample 002", "value": 1.2, "unit": "pmol per mg tissue"}, {"measurement": "Anthocyanin uptake, Gel pH 6.5", "setting": "[2]; explant sample 002", "value": 10.3, "unit": "pmol per mg tissue"}, {"measurement": "% change 3.5 to 6.5", "setting": "[2]; explant sample 003", "value": 12.1, "unit": "%"}, {"measurement": "Anthocyanin uptake, Gel pH 3.5", "setting": "[2]; explant sample 003", "value": 5.7, "unit": "pmol per mg tissue"}, {"measurement": "Anthocyanin uptake, Gel pH 6.5", "setting": "[2]; explant sample 003", "value": 6.4, "unit": "pmol per mg tissue"}, {"measurement": "% change 3.5 to 6.5", "setting": "[2]; explant sample 004", "value": "−65.1", "unit": "%"}, {"measurement": "Anthocyanin uptake, Gel pH 3.5", "setting": "[2]; explant sample 004", "value": 3.6, "unit": "pmol per mg tissue"}, {"measurement": "Anthocyanin uptake, Gel pH 6.5", "setting": "[2]; explant sample 004", "value": 1.3, "unit": "pmol per mg tissue"}, {"measurement": "% change 3.5 to 6.5", "setting": "[2]; explant sample 005", "value": "−45.9", "unit": "%"}, {"measurement": "Anthocyanin uptake, Gel pH 3.5", "setting": "[2]; explant sample 005", "value": 0.9, "unit": "pmol per mg tissue"}, {"measurement": "Anthocyanin uptake, Gel pH 6.5", "setting": "[2]; explant sample 005", "value": 0.5, "unit": "pmol per mg tissue"}, {"measurement": "% change 3.5 to 6.5", "setting": "[2]; explant sample 006", "value": 258.5, "unit": "%"}, {"measurement": "Anthocyanin uptake, Gel pH 3.5", "setting": "[2]; explant sample 006", "value": 9.9, "unit": "pmol per mg tissue"}, {"measurement": "Anthocyanin uptake, Gel pH 6.5", "setting": "[2]; explant sample 006", "value": 35.5, "unit": "pmol per mg tissue"}, {"measurement": "% change 3.5 to 6.5", "setting": "[2]; explant sample 007", "value": "−9.4", "unit": "%"}, {"measurement": "Anthocyanin uptake, Gel pH 3.5", "setting": "[2]; explant sample 007", "value": 1.1, "unit": "pmol per mg tissue"}, {"measurement": "Anthocyanin uptake, Gel pH 6.5", "setting": "[2]; explant sample 007", "value": 1.0, "unit": "pmol per mg tissue"}, {"measurement": "Anthocyanin uptake, Gel pH 3.5", "setting": "[2]; explant sample 008", "value": 0.0, "unit": "pmol per mg tissue"}, {"measurement": "Anthocyanin uptake, Gel pH 6.5", "setting": "[2]; explant sample 008", "value": 6.3, "unit": "pmol per mg tissue"}, {"measurement": "% change 3.5 to 6.5", "setting": "[2]; explant sample 009", "value": 318.4, "unit": "%"}, {"measurement": "Anthocyanin uptake, Gel pH 3.5", "setting": "[2]; explant sample 009", "value": 9.9, "unit": "pmol per mg tissue"}, {"measurement": "Anthocyanin uptake, Gel pH 6.5", "setting": "[2]; explant sample 009", "value": 41.3, "unit": "pmol per mg tissue"}, {"measurement": "% change 3.5 to 6.5", "setting": "[2]; explant sample 010", "value": "−91.9", "unit": "%"}, {"measurement": "Anthocyanin uptake, Gel pH 3.5", "setting": "[2]; explant sample 010", "value": 6.7, "unit": "pmol per mg tissue"}, {"measurement": "Anthocyanin uptake, Gel pH 6.5", "setting": "[2]; explant sample 010", "value": 0.5, "unit": "pmol per mg tissue"}, {"measurement": "% change 3.5 to 6.5", "setting": "[2]; explant sample 011", "value": "−100", "unit": "%"}, {"measurement": "Anthocyanin uptake, Gel pH 3.5", "setting": "[2]; explant sample 011", "value": 6.0, "unit": "pmol per mg tissue"}, {"measurement": "Anthocyanin uptake, Gel pH 6.5", "setting": "[2]; explant sample 011", "value": 0.00, "unit": "pmol per mg tissue"}]}]}
